What all share (type): cell-based
The subject of test [1] is Human Multiple myeloma cell line (MM.1S). The experiment in a line: Inhibition of MM.1S cell proliferation (CellTiter luminescent viability). To be noted: Homo sapiens, MM1.S, Table IA5, IRAK4 inhibitor-based, 96 hours; for inhibition at 0.01 µM: 10 nM, read-out: Inhibition Rate at 10 nM (%); for inhibition at 0.5 µM: 500 nM, read-out: Inhibition Rate at 500 nM (%). Summed up:
(§1)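 Cells are seeded in 96-well plates, cultured at 37 °C, 5% CO2, and treated next day with 5-fold serial compound dilutions (stock series from 2000 μM; 0.5 μL into 100 μL medium). Viability is read by CellTiter-Meiluncell luminescence after the set exposure, and IC50 is taken from growth-inhibition curves.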

Test [2] concerns Human B-Cell Lymphoma Cells (RPMI-8226). The experiment in a line: Inhibition of RPMI-8226 cell proliferation (CellTiter luminescent viability). The note with it: Table IA4, IRAK4 inhibitor-based, RPMI-8226, 500 nM, 96 hours, read-out: Inhibition Rate at 500 nM (%). On the procedure: (§2) The tumor cells used herein were cultured in a cell culture medium listed in table 3 at 37 °C in an incubator with 5% CO2. Prior to experimentation, all cell lines used were correctly identified by STR profiling, and tested negative for mycoplasma contamination using a mycoplasma detection kit through routine screenings.
(§3) The IC50 values of the compounds of the present disclosure (including the compounds in Table 1, Table 2, and Examples 1-468) were determined using the CellTiter-Meiluncell Luminescent Cell Viability Assay Kit from Dalian Meilun Biotech Co., Ltd. The detailed procedure is as follows: Tumor cells were seeded in 96-well cell culture plates at the densities specified in Table 4. On the following day, the test compounds of the present disclosure were subjected to serial dilution. The dilution can be performed according to one of the following two methods: • (1) The first dilution method: The test compounds of the present disclosure (including the compounds in Table 1, Table 2, and Examples 1-468) were subjected to 5-fold serial dilutions starting from a highest concentration of 2000 μM, resulting in a total of 9 concentrations from high to low (2000, 400, 80, 16, 3.2, 0.64, 0.128, 0.0256, 0.00512 μM). Subsequently, 0.5 μL of the test compound dilution was transferred into the 96-well plate containing the cells, with each well containing 100 μL of cell culture medium. […] Into the 96-well plate, the diluted test compounds and corresponding detection reagents were added, resulting in final test compound concentrations of 500 nM and 10 nM, respectively. The experimental procedure is described below using the diluted 2 μM test compound as an example.
(§4) 0.5 μL of the aforementioned diluted compound of the present disclosure (including the compounds in Table 1, Table 2, and Examples 1-468) was added to the seeded cells in 100 μL of medium, yielding a final test compound concentration of 10 nM. After the cells were treated with the compounds of the present disclosure for a specified period, the cell viability assay reagent was added to the culture medium according to the kit's instructions to determine cell viability. […] All controls were treated using the same procedure as the compounds of the present disclosure. The growth inhibition curves for the compounds of the present disclosure were plotted using Prism GraphPad software, and the IC50 values were calculated therefrom.

Assay in test [3]: as above
The note with it: Homo sapiens; Table IA4, IRAK4 inhibitor-based; RPMI-8226, 10 nM, 96 hours; read-out: Inhibition Rate at 10 nM (%). Here is the method:
as §2, §3, §4

The subject of test [4] is Human myeloid monocytic leukemia cell line (MV-4-11). Nature of the test: Inhibition of MV-4-11 cell proliferation (CellTiter luminescent viability). The note with it: Homo sapiens, MV4-11, Table IA3, IRAK4 inhibitor-based, 96 hours; for inhibition at 0.01 µM: MV-4-11, 10 nM, read-out: Inhibition Rate at 10 nM (%); for inhibition at 0.5 µM: MV-4-11, 500 nM, read-out: Inhibition Rate at 500 nM (%). An outline of the steps:
as §1

In general, inhibition refers to the drop in the measured response relative to a control, in per cent. For `CC(C)(O)c1cc2nc(C3CCN(CC4CCN(c5ccc6c(c5)C(=O)N(N5CCC(=O)NC5=O)C6=O)CC4)CC3)oc2cc1NC(=O)c1cccc(C(F)(F)F)n1` [GT-05222, N-(2-(1-((1-(2-(2,4-dioxotetrahydropyrimidin-1(2H)-yl)-1,3-dioxoisoindolin-5-yl)piperidin-4-yl)methyl)piperidin-4-yl)-5-(2-hydroxypropan-2-yl)benzo[d]oxazol-6-yl)-6-(trifluoromethyl) picolinamide], the inhibition at 0.01 µM in test [1] and in test [3] was 30 to 40% in each case. Moreover, the results for the inhibition at 0.5 µM in test [1] and in test [2] were 25 to 30% and 30 to 40%, respectively.

`CC(C)(O)c1cc2nc(C3CCN(Cc4ccc5c(c4)CN(N4CCC(=O)NC4=O)C5=O)CC3)sc2cc1NC(=O)c1cccc(C(F)(F)F)n1` [GT-05747, N-(2-(1-((2-(2,4-dioxotetrahydropyrimidin-1(2H)-yl)-1-oxoisoindolin-5-yl)methyl)piperidin-4-yl)-5-(2-hydroxypropan-2-yl)benzo[d]thiazol-6-yl)-6-(trifluoromethyl) picolinamide]: the inhibition at 0.01 µM in test [4] fell in the range of 36 to 45%; in test [3], 25 to 30%. Besides, the inhibition at 0.5 µM was 80 to 100% in test [4] and 25 to 30% in test [2].

As to `Cc1cc(-c2nc(C(=O)Nc3cc4oc(N5CCN(Cc6ccc7c(c6)CN(N6CCC(=O)NC6=O)C7=O)CC5)nc4nc3N3CC[C@@H](O)C3)co2)ccn1` [GT-05750, (R)—N-(2-(4-((2-(2,4-dioxotetrahydropyrimidin-1(2H)-yl)-1-oxoisoindolin-5-yl)methyl)piperazin-1-yl)-5-(3-hydroxypyrrolidin-1-yl)oxazolo[4,5-b]pyridin-6-yl)-2-(2-methylpyridin-4-yl) oxazole-4-carboxamide], the inhibition at 0.01 µM in test [4] lay within 36 to 45%; in test [3], 25 to 30%. Further, the results for the inhibition at 0.5 µM in test [4] and in test [2] were 80 to 100% and 20 to 25%, respectively.

`O=C1CCN(N2C(=O)c3ccc(N4CCC(N5CCC(CN6CCC(n7cc(NC(=O)c8cnn9ccc(N%10CCOCC%10)nc89)c(C(F)F)n7)CC6)CC5)CC4)cc3C2=O)C(=O)N1` [GT-05760, N-(3-(difluoromethyl)-1-(1-((1′-(2-(2,4-dioxotetrahydropyrimidin-1(2H)-yl)-1,3-dioxoisoindolin-5-yl)-[1,4′-bipiperidin]-4-yl)methyl)piperidin-4-yl)-1H-pyrazol-4-yl)-5-morpholinopyrazolo[1,5-a]pyrimidine-3-carboxamide]: the inhibition at 0.01 µM in test [4] is 50 to 60%; in test [1], 25 to 30%; in test [3], 25 to 30%. Also, the inhibition at 0.5 µM in test [4] lay in the range of 80 to 100%; in test [1] it was 30 to 40%; in test [2], 30 to 40%.

In the case of `Cc1cc(-c2nc(C(=O)Nc3cc4oc(N5CCN(Cc6ccc7c(c6)C(=O)N(N6CCC(=O)NC6=O)C7=O)CC5)nc4nc3N3CC[C@@H](O)C3)co2)ccn1` [GT-05803, (R)—N-(2-(4-((2-(2,4-dioxotetrahydropyrimidin-1(2H)-yl)-1,3-dioxoisoindolin-5-yl)methyl)piperazin-1-yl)-5-(3-hydroxypyrrolidin-1-yl)oxazolo[4,5-b]pyridin-6-yl)-2-(2-methylpyridin-4-yl) oxazole-4-carboxamide], the inhibition at 0.01 µM in test [4] lay in the range of 50 to 60%; in test [1], 30 to 40%; in test [3] it was 25 to 30%. In addition, the inhibition at 0.5 µM in test [4] was 60 to 80%; in test [1] it was 25 to 30%; in test [2], 20 to 25%.

For the origin of these results see patent US20260364184A1, “COMPOUND BASED ON OXOISOINDOLINYL-SUBSTITUTED TETRAHYDROPYRIMIDINE-DIONE AND USE THEREOF” (GLUETACS THERAPEUTICS (SHANGHAI) CO., LTD., priority 2023, published 2026).
